Test results from US9000153B2, “Imidazo[4,5-c]quinolines as DNA-PK inhibitors” (Merck Patent GmbH, priority 2010, dated 2015).

biological target: DNA-PK (Homo sapiens (Human), UniProt P78527); assay: DNA-PK/biochemical assay (FlashPlate kinase assay); conditions: 5 μM ATP, 90 min, room temperature
Procedure: The kinase assay was carried out in streptavidin-coated […] microtitre FlashPlates®. To this end, 1.5 μg of the DNA-PK/protein complex and 100 ng of biotinylated substrate, such as, for example, PESQEAFADLWKK biotin-NH2 (“biotin-DNA-PK peptide”), in a total volume of 36.5 μl (34.25 mM HEPES/KOH, 7.85 mM Tris-HCl, 68.5 mM KCl, 5 μM ATP, 6.85 mM MgCl2, 0.5 mM EDTA, 0.14 mM EGTA, 0.69 mM DTT, pH 7.4), were incubated at room temperature for 90 min with 500 ng of DNA from calf thymus, 0.1 μCi of 33P-ATP and 1.8% of DMSO per well with or without the test compound. The reaction was stopped using 50 μl/well of 200 mM EDTA. After incubation for a further 30 min at room temperature, the liquid was removed. Each well was washed three times with 100 μl of 0.9% sodium chloride solution. A non-specific reaction (blank value) was determined using 10 μM of a proprietary kinase inhibitor. The radioactivity measurement was carried out by means of a TopCount. IC50 values were calculated in RS1 (Kashishian et al. (2003) Molecular Cancer Therapeutics 1257).

Compound	IC50 [µM]
COc1cc2ncc3[nH]c(=O)n(-c4ccc(C#N)cc4)c3c2cc1OC [Compound 1, 4-(7,8-Dimethoxy-2-oxo-2,3-dihydroimidazo[4,5-c]quinolin-1-yl)benzonitrile]	< 0.1
COc1cc2ncc3c(c2cc1OC)n(-c1ccc(C#N)cc1)c(=O)n3C [Compound 2, 4-(7,8-Dimethoxy-3-methyl-2-oxo-2,3-dihydroimidazo-[4,5-c]quinolin-1-yl)-benzonitrile]	< 0.1
COc1cc2ncc3c(c2cc1O)n(-c1ccc(C#N)cc1)c(=O)n3C [Compound 3, 4-(8-Hydroxy-7-methoxy-3-methyl-2-oxo-2,3-dihydro-imidazo[4,5-c]quinolin-1-yl)-benzonitrile]	< 0.1
COc1cc2ncc3c(c2cc1O)n(-c1ccc(C#N)cc1F)c(=O)n3C [Compound 4, 3-Fluoro-4-(8-hydroxy-7-methoxy-3-methyl-2-oxo-2,3-dihydroimidazo[4,5-c]quinolin-1-yl)benzonitrile]	< 0.1
COc1cc2ncc3c(c2cc1O)n(-c1c(F)cc(C#N)cc1F)c(=O)n3C [Compound 5, 3,5-Difluoro-4-(8-hydroxy-7-methoxy-3-methyl-2-oxo-2,3-dihydroimidazo[4,5-c]quinolin-1-yl)benzonitrile]	< 0.1
COc1cc2ncc3[nH]c(=O)n(-c4ccc(C#N)cc4)c3c2cc1OCc1ccccc1 [Compound 6, 4-(8-Benzyloxy-7-methoxy-2-oxo-2,3-dihydroimidazo-[4,5-c]quinolin-1-yl)-benzonitrile]	< 0.1
COc1cc2ncc3c(c2cc1OCc1ccccc1)n(-c1ccc(C#N)cc1)c(=O)n3C [Compound 7, 4-(8-Benzyloxy-7-methoxy-3-methyl-2-oxo-2,3-dihydro-imidazo[4,5-c]quinolin-1-yl)-benzonitrile]	< 0.1
COc1cc2ncc3[nH]c(=O)n(-c4ccc(C#N)cc4F)c3c2cc1OCc1ccccc1 [Compound 8, 4-(8-Benzyloxy-7-methoxy-2-oxo-2,3-dihydroimidazo-[4,5-c]quinolin-1-yl)-3-fluorobenzonitrile]	< 0.1
COc1cc2ncc3c(c2cc1OCc1ccccc1)n(-c1ccc(C#N)cc1F)c(=O)n3C [Compound 9, 4-(8-Benzyloxy-7-methoxy-3-methyl-2-oxo-2,3-dihydro-imidazo[4,5-c]quinolin-1-yl)-3-fluorobenzonitrile]	< 0.1
COc1cc2ncc3[nH]c(=O)n(-c4c(F)cc(C#N)cc4F)c3c2cc1OCc1ccccc1 [Compound 10, 4-(8-Benzyloxy-7-methoxy-2-oxo-2,3-dihydroimidazo-[4,5-c]quinolin-1-yl)-3,5-difluorobenzonitrile]	< 0.1
COc1cc2ncc3c(c2cc1OCc1ccccc1)n(-c1c(F)cc(C#N)cc1F)c(=O)n3C [Compound 11, 4-(8-Benzyloxy-7-methoxy-3-methyl-2-oxo-2,3-dihydro-imidazo[4,5-c]quinolin-1-yl)-3,5-difluorobenzonitrile]	< 0.1
COC(=O)n1c(=O)n(-c2ccc(C#N)cc2F)c2c3cc(OCc4ccccc4)c(OC)cc3ncc21 [Compound 12, Methyl 8-benzyloxy-1-(4-cyano-2-fluorophenyl)-7-methoxy-2-oxo-1,2-dihydroimidazo[4,5-c]-quinoline-3-carboxylate]	< 0.1
COc1cc2ncc3c(c2cc1OCc1ccsc1)n(-c1ccc(C#N)cc1F)c(=O)n3C [Compound 13, 3-Fluoro-4-(7-methoxy-3-methyl-2-oxo-8-(thiophen-3-ylmethoxy)-2,3-dihydroimidazo[4,5-c]-quinolin-1-yl)benzonitrile]	< 0.1

The remaining lines, values ahead:

IC50 [µM]	Compound
< 0.1	COc1cc2ncc3c(c2cc1OCc1cccs1)n(-c1ccc(C#N)cc1F)c(=O)n3C [Compound 14, 3-Fluoro-4-(7-methoxy-3-methyl-2-oxo-8-(thiophen-2-ylmethoxy)-2,3-dihydroimidazo[4,5-c]-quinolin-1-yl)benzonitrile]
< 0.1	COc1cc2ncc3c(c2cc1OC(C(N)=O)c1ccc(F)cc1)n(-c1ccc(C#N)cc1F)c(=O)n3C (stereo not drawn) [Compound 15, 2-[1-(4-Cyano-2-fluorophenyl)-7-methoxy-3-methyl-2-oxo-2,3-dihydro-1H-imidazo[4,5-c]-quinolin-8-yloxy]-2-(4-fluoro-phenyl)acetamide]
0.1 to 0.5	COCCNC(=O)C(Oc1cc2c(cc1OC)ncc1c2n(-c2ccc(C#N)cc2F)c(=O)n1C)c1ccc(F)cc1 (stereo not drawn) [Compound 16, 2-[1-(4-Cyano-2-fluorophenyl)-7-methoxy-3-methyl-2-oxo-2,3-dihydro-1H-imidazo[4,5-c]-quinolin-8-yloxy]-2-(4-fluoro-phenyl)-N-(2-methoxyethyl)-acetamide]
< 0.1	COc1cc2ncc3c(c2cc1OCc1ccc(F)cc1)n(-c1ccc(C#N)cc1F)c(=O)n3C [Compound 17, 3-Fluoro-4-[8-(4-fluoro-benzyloxy)-7-methoxy-3-methyl-2-oxo-2,3-dihydro-imidazo[4,5-c]quinolin-1-yl]-benzonitrile]
< 0.1	COc1cc2ncc3c(c2cc1OC(C(N)=O)c1ccccc1)n(-c1ccc(C#N)cc1F)c(=O)n3C (stereo not drawn) [Compound 18, 2-[1-(4-Cyano-2-fluorophenyl)-7-methoxy-3-methyl-2-oxo-2,3-dihydro-1H-imidazo[4,5-c]-quinolin-8-yloxy]-2-phenyl-acetamide]
0.1 to 0.5	COc1cc2ncc3c(c2cc1OCc1sccc1S(=O)(=O)N1CCOCC1)n(-c1ccc(C#N)cc1F)c(=O)n3C [Compound 19, 3-Fluoro-4-{7-methoxy-3-methyl-8-[3-(morpholine-4-sulfonyl)-thiophen-2-ylmethoxy]-2-oxo-2,3-dihydro-1H-imidazo[4,5-c]-quinolin-1-yl}benzonitrile]
< 0.1	COc1cc2ncc3c(c2cc1OCc1ccncc1)n(-c1ccc(C#N)cc1F)c(=O)n3C [Compound 20, 3-Fluoro-4-[7-methoxy-3-methyl-2-oxo-8-(pyridin-4-ylmethoxy)-2,3-dihydroimidazo[4,5-c]-quinolin-1-yl]benzonitrile]
< 0.1	COc1cc2ncc3c(c2cc1OCc1ccccc1Br)n(-c1ccc(C#N)cc1F)c(=O)n3C [Compound 21, 4-[8-(2-Bromobenzyloxy)-7-methoxy-3-methyl-2-oxo-2,3-dihydroimidazo[4,5-c]quinolin-1-yl]-3-fluorobenzonitrile]
< 0.1	COc1cc2ncc3c(c2cc1OCc1ccc(F)cc1Br)n(-c1ccc(C#N)cc1F)c(=O)n3C [Compound 22, 4-[8-(2-Bromo-4-fluorobenzyloxy)-7-methoxy-3-methyl-2-oxo-2,3-clihydro-imidazo[4,5-c]quinolin-1-yl]-3-fluorobenzonitrile]
< 0.1	COc1cc2ncc3c(c2cc1OCc1ccc(F)cc1Cl)n(-c1ccc(C#N)cc1F)c(=O)n3C [Compound 23, 4-[8-(2-Chloro-4-fluorobenzyloxy)-7-methoxy-3-methyl-2-oxo-2,3-dihydro-imidazo[4,5-c]quinolin-1-yl]-3-fluorobenzonitrile]
< 0.1	COc1cc2ncc3c(c2cc1OCc1ccc(F)c(Cl)c1)n(-c1ccc(C#N)cc1F)c(=O)n3C [Compound 24, 4-[8-(3-Chloro-4-fluorobenzyloxy)-7-methoxy-3-methyl-2-oxo-2,3-dihydro-imidazo[4,5-c]quinolin-1-yl]-3-fluorobenzonitrile]
